# Assay results from patent EP3800188A1, “SUBSTITUTED PYRAZOLOPYRIMIDINES AS IRAK4 INHIBITORS” (Bayer AG, priority 2019, dated 2021).
# Experiments:
# canine Irak4 = molecular target: T1, canine Irak4 (Canis lupus familiaris, UniProt A0A8I3S726); experiment: Canine Irak4 kinase assay (TR-FRET); assay type: biochemical; details: 1 mM ATP, His6-tagged canine Irak4, average or median values
# T1 sequence (A0A8I3S726 2-459): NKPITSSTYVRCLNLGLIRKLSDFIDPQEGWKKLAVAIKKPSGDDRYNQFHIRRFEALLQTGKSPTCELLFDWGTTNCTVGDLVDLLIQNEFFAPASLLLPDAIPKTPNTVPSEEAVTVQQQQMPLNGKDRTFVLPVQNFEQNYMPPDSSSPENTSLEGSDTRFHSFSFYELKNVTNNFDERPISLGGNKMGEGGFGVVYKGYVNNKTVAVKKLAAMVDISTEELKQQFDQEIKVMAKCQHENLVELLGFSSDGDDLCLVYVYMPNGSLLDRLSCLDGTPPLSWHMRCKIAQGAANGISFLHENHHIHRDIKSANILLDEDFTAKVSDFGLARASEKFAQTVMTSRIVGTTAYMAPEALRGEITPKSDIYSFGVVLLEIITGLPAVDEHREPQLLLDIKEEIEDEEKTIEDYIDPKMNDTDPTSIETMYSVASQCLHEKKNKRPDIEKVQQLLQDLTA
# human IRAK4 = molecular target: T2, human IRAK4 (Homo sapiens, UniProt Q9NWZ3); experiment: Human IRAK4 kinase activity inhibition assay (IRAK4 TR-FRET assay); assay type: biochemical; details: 1 mM ATP, GST-human IRAK4, average or median values
# T2 construct: GST (N); made in house; host or cells: baculovirus-infected Hi5 (BTI-TN-5B1-4) insect cells
# T2 sequence (Q9NWZ3 1-460): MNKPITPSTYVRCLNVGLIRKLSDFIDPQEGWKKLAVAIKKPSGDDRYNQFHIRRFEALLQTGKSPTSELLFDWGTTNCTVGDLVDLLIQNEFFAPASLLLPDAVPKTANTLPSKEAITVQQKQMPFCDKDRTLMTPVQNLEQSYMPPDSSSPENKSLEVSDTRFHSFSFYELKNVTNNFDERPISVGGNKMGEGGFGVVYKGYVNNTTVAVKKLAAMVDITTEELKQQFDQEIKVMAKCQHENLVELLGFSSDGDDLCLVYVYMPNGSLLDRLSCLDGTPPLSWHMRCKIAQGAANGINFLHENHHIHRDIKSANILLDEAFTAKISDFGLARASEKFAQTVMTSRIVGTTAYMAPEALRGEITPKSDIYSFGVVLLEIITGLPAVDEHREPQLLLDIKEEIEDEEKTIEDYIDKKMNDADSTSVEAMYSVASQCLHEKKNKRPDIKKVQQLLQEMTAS
# How it was run: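 Signal was the 665/620 nm emission ratio from a europium anti-mouse-IgG, anti-phosphoserine antibody and streptavidin-XL665 complex formed over 1 h at 22°C. It was scaled between no-enzyme (100%) and no-compound (0%) wells. Beforehand, compounds (20 µM down to 0.073 nM, 11 points) sat 15 min with roughly 0.2 nM insect-cell-expressed GST-human IRAK4 before phosphorylation of a biotinylated peptide substrate.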
# [1] = Metabolic stability in human liver microsomes; details: 1 µM compound; for CLblood, human microsomes: hepatic in vivo blood clearance calculated with well stirred liver model, '(stable)' given beside < 0.01; for Fmax, human microsomes: maximal oral bioavailability calculated with well stirred liver model, 0.5 mg/mL protein, '(stable)' given beside 100
# Method: The in vitro metabolic stability of test compounds was determined by incubating them at 1 µM in a suspension liver microsomes in 100 mM phosphate buffer, pH7.4 (NaH2PO4 x H2O + Na2HPO4 x 2H2O) and at a protein concentration of 0.5 mg/mL at 37° C. The microsomes were activated by adding a co-factor mix containing 8 mM Glukose-6-Phosphat, 4 mM MgCl2, 0.5 mM NADP and 1 IU/mL G-6-P-Dehydrogenase in phosphate buffer, pH 7.4. The metabolic assay was started shortly afterwards by adding the test compound to the incubation at a final volume of 1 mL. Organic solvent in the incubations was limited to ≤0.01 % dimethylsulfoxide (DMSO) and ≤1% acetonitril. During incubation, the microsomal suspensions were continuously shaken at 580 rpm, and aliquots were taken at 2, 8, 16, 30, 45 and 60 min, to which equal volumes of cold methanol were immediately added. Samples were frozen at -20° C over night, subsequently centrifuged for 15 min at 3000 rpm and the supernatant was analyzed with an Agilent 1200 HPLC-system with LCMS/MS detection.
# The half-life of a test compound was determined from the concentration-time plot. From the half-life the intrinsic clearances were calculated. Together with the additional parameters liver blood flow, specific liver weight and microsomal protein content the hepatic in vivo blood clearance (CL) and the maximal oral bioavailability (Fmax) were calculated using the "well stirred" liver model. The following parameter values were used: Liver blood flow - 1.32 L/h/kg (human), 2.1 L/h/kg (dog); specific liver weight - 21 g/kg (human), 39 g/kg (dog); microsomal protein content - 40 mg/g.
# [2] = Metabolic stability in dog liver microsomes; assay type: in vitro ADME; details: 1 µM compound; for CLblood, dog microsomes: hepatic in vivo blood clearance calculated with well stirred liver model, '(stable)' given beside < 0.01; for Fmax, dog microsomes: maximal oral bioavailability calculated with well stirred liver model, 0.5 mg/mL protein, '(stable)' given beside 100
# Method: From the half-life the intrinsic clearances were calculated.
IC50 (canine Irak4) [nM],IC50 (human IRAK4) [nM],"CLblood, human microsomes [1]","Fmax, human microsomes [1]","CLblood, dog microsomes [2]","Fmax, dog microsomes [2]",SMILES
3.19,3.04,–,–,–,–,"O=C1C[C@H](Nc2nc(N3CC(N4CCOCC4)C3)c3cnn(-c4cccc(C(F)(F)F)c4)c3n2)CN1 [Example I-1-1, (4S)-4-({4-[3-(morpholin-4-yl)azetidin-1-yl]-1-[3-(trifluoromethyl)phenyl]-1H-pyrazolo-[3,4-d]pyrimidin-6-yl}amino)pyrrolidin-2-one]"
–,3.45,0.10 L/h/kg,93%,0.24 L/h/kg,89%,"CC(C)(O)C1CCN(c2nc(NC3CCS(=O)(=O)CC3)nc3c2cnn3-c2cccc(C(F)F)c2)CC1 [II-5, 2-(1-{1-[3-(difluoromethyl)phenyl]-6-[(1,1-dioxidotetrahydro-2H-thiopyran-4-yl)amino]-1H-pyrazolo[3,4-d]pyrimidin-4-yl}piperidin-4-yl)propan-2-ol]"
–,5.49,0.19 L/h/kg,86%,0.46 L/h/kg,78%,"CC(C)(O)C1CCN(c2nc(N[C@H]3CCS(=O)(=O)C3)nc3c2cnn3-c2cccc(C(F)F)c2)CC1 [II-6, 2-[1-(1-[3-(difluoromethyl)phenyl]-6-{[(3S)-1,1-dioxidotetrahydrothiophen-3-yl]amino}-1H-pyrazolo[3,4-d]pyrimidin-4-yl)piperidin-4-yl]propan-2-ol]"
–,2.98,0.25 L/h/kg,81%,0.42 L/h/kg,80%,"CC(C)(O)C1CCN(c2nc(NC3CN(S(C)(=O)=O)C3)nc3c2cnn3-c2cccc(C(F)F)c2)CC1 [II-12, 2-[1-(1-[3-(difluoromethyl)phenyl]-6-{[1-(methylsulfonyl)azetidin-3-yl]amino}-1H-pyrazolo[3,4-d]pyrimidin-4-yl)piperidin-4-yl]propan-2-ol]"
–,7.31,0.28 L/h/kg,79%,0.10 L/h/kg,95%,"O[C@H]1C[C@@H](Nc2nc(N3CC(N4CCOCC4)C3)c3cnn(-c4cccc(C(F)(F)F)c4)c3n2)C1 [Example I-72, cis-3-({4-[3-(morpholin-4-yl)azetidin-1-yl]-1-[3-(trifluoromethyl)phenyl]-1H-pyrazolo[3,4-d]pyrimidin-6-yl}amino)cyclobutanol]"
–,5.65,< 0.01 (stable) L/h/kg,100 (stable) %,–,–,"O[C@H]1C[C@@H](Nc2nc(N3CC(N4CCOCC4)C3)c3cnn(-c4cccc(C(F)F)c4)c3n2)C1 [II-24, cis-3-({1-[3-(difluoromethyl)phenyl]-4-[3-(morpholin-4-yl)azetidin-1-yl]-1H-pyrazolo[3,4-d]pyrimidin-6-yl}amino)cyclobutanol]"
–,4.83,0.11 L/h/kg,91%,–,–,"O[C@H]1C[C@H](Nc2nc(N3CC(N4CCOCC4)C3)c3cnn(-c4cccc(C(F)(F)F)c4)c3n2)C1 [Example I-74, trans-3-({4-[3-(morpholin-4-yl)azetidin-1-yl]-1-[3-(trifluoromethyl)phenyl]-1H-pyrazolo-[3,4-d]pyrimidin-6-yl}amino)cyclobutanol]"
–,4.28,0.16 L/h/kg,88%,–,–,"CS(=O)(=O)[C@H]1C[C@H](Nc2nc(N3C[C@H](O)[C@@H](F)C3)c3cnn(-c4cccc(C(F)(F)F)c4)c3n2)C1 [Example I-94, (3S,4S)-4-fluoro-1-(6-{[(1r,3S)-3-(methylsulfonyl)cyclobutyl]amino}-1-[3-(trifluoromethyl)phenyl]-1H-pyrazolo[3,4-d]pyrimidin-4-yl)pyrrolidin-3-ol]"
–,3.42,0.32 L/h/kg,76%,< 0.01 (stable) L/h/kg,100 (stable) %,"CC(C)(O)C1CCN(c2nc(N[C@H]3C[C@H](S(C)(=O)=O)C3)nc3c2cnn3-c2cccc(OC(F)F)c2)CC1 [IV-2, 2-[1-(1-[3-(difluoromethoxy)phenyl]-6-{[trans-3-(methylsulfonyl)cyclobutyl]amino}-1H-pyrazolo[3,4-d]pyrimidin-4-yl)piperidin-4-yl]propan-2-ol]"
–,2.41,< 0.01 (stable) L/h/kg,100 (stable) %,–,–,"O[C@@H]1CN(c2nc(N[C@H]3C[C@@H](O)C3)nc3c2cnn3-c2cccc(C(F)(F)F)c2)C[C@H]1O [Example I-85, (3R,4R)-1-(6-{[(1s,3S)-3-hydroxycyclobutyl]amino}-1-[3-(trifluoromethyl)phenyl]-1H-pyrazolo[3,4-d]pyrimidin-4-yl)pyrrolidine-3,4-diol]"
–,3.33,< 0.01 (stable) L/h/kg,100 (stable) %,< 0.01 (stable) L/h/kg,100 (stable) %,"CN1CC[C@H](Nc2nc(N3CCC(C(C)(C)O)CC3)c3cnn(-c4cccc(C(F)F)c4)c3n2)C1 [II-4, 2-[1-(1-[3-(difluoromethyl)phenyl]-6-{[(3S)-1-methylpyrrolidin-3-yl]amino}-1H-pyrazolo-[3,4-d]pyrimidin-4-yl)piperidin-4-yl]propan-2-ol]"
–,6.8,0.10 L/h/kg,93%,–,–,"C[C@@]1(O)CCN(c2nc(N[C@H]3C[C@H](S(C)(=O)=O)C3)nc3c2cnn3-c2cccc(C(F)F)c2)C1 [II-35, (3R)-1-(1-[3-(difluoromethyl)phenyl]-6-{[(1r,3R)-3-(methylsulfonyl)cyclobutyl]amino}-1H-pyrazolo[3,4-d]pyrimidin-4-yl)-3-methylpyrrolidin-3-ol]"
–,7.51,< 0.01 (stable) L/h/kg,100 (stable) %,–,–,"O=C1CN(C2CN(c3nc(N[C@H]4C[C@@H](O)C4)nc4c3cnn4-c3cccc(C(F)(F)F)c3)C2)CCN1 [Example I-115, 4-(1-{6-[(cis-3-hydroxycyclobutyl)amino]-1-[3-(trifluoromethyl)phenyl]-1H-pyrazolo[3,4-d]pyrimidin-4-yl}azetidin-3-yl)piperazin-2-one]"
–,1.4,0.25 L/h/kg,81%,–,–,"CC(C)(N)C1CCN(c2nc(NC3CCS(=O)(=O)CC3)nc3c2cnn3-c2cccc(C(F)(F)F)c2)CC1 [Example I-46, 4-[4-(2-aminopropan-2-yl)piperidin-1-yl]-N-(1,1-dioxidotetrahydro-2H-thiopyran-4-yl)-1-[3-(trifluoromethyl)phenyl]-1H-pyrazolo[3,4-d]pyrimidin-6-amine]"
–,11.5,0.05 L/h/kg,97%,–,–,"O=S1(=O)C[C@H](Nc2nc(N3CC(N4CCOCC4)C3)c3cnn(-c4cccc(C(F)(F)F)c4)c3n2)[C@@H](O)C1 (relative stereo) [Example I-37, rel-(3R,4R)-4-({4-[3-(morpholin-4-yl)azetidin-1-yl]-1-[3-(trifluoromethyl)phenyl]-1H-pyrazolo[3,4-d]pyrimidin-6-yl}amino)tetrahydrothiophene-3-ol 1,1-dioxide]"

SMILES,IC50 (canine Irak4) [nM],IC50 (human IRAK4) [nM],"CLblood, human microsomes [1]","Fmax, human microsomes [1]","CLblood, dog microsomes [2]","Fmax, dog microsomes [2]"
"CC(C)(O)C1CCN(c2nc(N[C@H]3C[C@](C)(O)C3)nc3c2cnn3-c2cccc(C(F)(F)F)c2)CC1 [Example I-91, trans-3-({4-[4-(2-hydroxypropan-2-yl)piperidin-1-yl]-1-[3-(trifluoromethyl)phenyl]-1H-pyrazolo[3,4-d]pyrimidin-6-yl}amino)-1-methylcyclobutanol]",–,6.53,0.04 L/h/kg,97%,–,–
C[C@]1(O)C[C@@H](Nc2nc(N3C[C@@H](O)[C@H](O)C3)c3cnn(-c4cccc(C(F)(F)F)c4)c3n2)C1 [Example I-107],–,8.11,0.05 L/h/kg,96%,–,–
